Results as given in US11186577B2, “Vasopressin receptor antagonists and products and methods related thereto” (BlackThorn Therapeutics, Inc., priority 2017, dated 2021).
Read-outs that look alike come from different tables or passages of the source.

Assays:
[1] = target: human Arginine Vasopressin Receptor V2 (AVPR2) (Homo sapiens (Human), UniProt P30518); test: Vasopressin V2 receptor antagonist assay (cAMP TR-FRET, 1321N1 cells); assay type: cell-based
[2] = target: human Oxytocin Receptor (hOTR) (Homo sapiens (Human), UniProt P30559); test: Oxytocin receptor antagonist assay (oxytocin-evoked calcium, FLIPR, CHEM-1-hOTR cells); assay type: cell-based; conditions: read-out: OT IC50
Chain of human Oxytocin Receptor (hOTR) (P30559 whole entry): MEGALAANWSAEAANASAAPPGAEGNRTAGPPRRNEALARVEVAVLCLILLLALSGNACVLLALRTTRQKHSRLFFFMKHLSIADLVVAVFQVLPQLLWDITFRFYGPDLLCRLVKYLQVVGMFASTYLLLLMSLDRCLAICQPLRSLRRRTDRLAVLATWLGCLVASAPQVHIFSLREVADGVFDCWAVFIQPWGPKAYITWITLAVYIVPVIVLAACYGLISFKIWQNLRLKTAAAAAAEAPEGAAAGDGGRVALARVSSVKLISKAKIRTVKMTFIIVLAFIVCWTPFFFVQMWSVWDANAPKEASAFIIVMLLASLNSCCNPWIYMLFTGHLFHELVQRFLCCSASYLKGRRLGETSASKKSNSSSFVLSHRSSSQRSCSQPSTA
In short: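 Antagonist mode in CHEM-1-hOTR cells loaded with Calcium-6 dye; compounds (10-point, 1:3 series) preincubated 15 min at 37 °C, then oxytocin added at daily-determined EC80 in HBSS/20 mM HEPES with 0.1% BSA. Fluorescence (ex 470-495, em 515-575 nm) followed 3 min on FLIPR^TETRA; concentration-dependent reduction of oxytocin response measured.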

[3] = tested on: MDR1 (P-glycoprotein); test: MDR1-MDCK effective efflux assay (Transwell, 10 μM, 1 hour), MDR1-MDCK cells; assay type: in vitro ADME; conditions: dog
In short: (§1)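 Wild-type and MDR1-MDCK monolayers cultured 3 days were dosed with compound at 10 μM (0.1% DMSO) in HBSS/25 mM HEPES pH 7.4, in both A>B and B>A directions, for 1 h at 37 °C. Samples were quantified by LC-MS/MS to give Papp and efflux ratio. Effective efflux ratio = ER(MDR1-MDCK)/ER(wild-type); Lucifer Yellow checked monolayer integrity.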

[4] = tested on: MDR1-MDCK cells; test: as above; assay type: in vitro ADME; conditions: for MDR1 EER / MDR1 ER: MDCK-MDR1
In short: as §1

[5] = MDCK-MDR1, pH 7.4, Papp AB MDR1
[6] = MDCK-MDR1, pH 7.4, MDR1-MDCK cells, apical to basolateral (A>B), 10 μM, 1 hour, read-out: Papp AB MDR1

Chain of human Arginine Vasopressin Receptor V2 (AVPR2) (P30518 whole entry): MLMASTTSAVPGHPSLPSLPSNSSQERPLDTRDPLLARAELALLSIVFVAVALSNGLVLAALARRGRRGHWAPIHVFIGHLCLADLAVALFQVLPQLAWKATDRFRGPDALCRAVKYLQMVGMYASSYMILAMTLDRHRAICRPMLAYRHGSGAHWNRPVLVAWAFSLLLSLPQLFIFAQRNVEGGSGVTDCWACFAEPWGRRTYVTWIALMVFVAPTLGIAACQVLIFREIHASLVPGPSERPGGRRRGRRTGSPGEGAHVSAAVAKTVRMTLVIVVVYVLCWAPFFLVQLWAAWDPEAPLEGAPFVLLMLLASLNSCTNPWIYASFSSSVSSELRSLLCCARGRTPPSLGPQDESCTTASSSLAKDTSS

Row | Compound | IC50 [1] [nM] | IC50 [2] [nM] | Papp A→B at 1 h, 10 μM [3, 5] [×10⁻⁶ cm/s] | MDR1 EER [4] | MDR1 ER [4] | Papp A→B at 1 h, 10 μM [3, 6] [×10⁻⁶ cm/s] | Papp AB MDR1 ([4]; MDR1-MDCK cells, apical to basolateral (A>B), 10 μM, 1 hour)
1 | COC(=O)N1Cc2cc(Cl)ccc2-n2c(C3CC4(C3)CN(c3ncccn3)C4)nnc2C1C (stereo not shown) [compound 166] | > 1000 | > 1000 | < 7 | + | + |  | 
2 | CN1Cc2cc(Cl)ccc2-n2c(nnc2C2CC3(C2)CN(c2ccc(F)cn2)C3)C1 [compound 1, 8-chloro-1-(2-(5-fluoropyridin-2-yl)-2-azaspiro[3.3]heptan-6-yl)-5-methyl-5,6-dihydro-4H-benzo[f][1,2,4]triazolo[4,3-a][1,4]diazepine] | > 1000 | > 1000 | 7 to 10 | + | + |  | 
3 | O=C(C1CC1)N1CC2(CC(c3nnc4n3-c3ccc(Cl)cc3CN(C(=O)C3(F)CC3)C4)C2)C1 [compound 136] | > 1000 | > 1000 | < 7 | + | + |  | 
4 | CCOC(=O)N1Cc2cc(Cl)ccc2-n2c(C3CC4(C3)CN(c3ncc(F)cn3)C4)nnc2C1C (stereo not shown) [compound 172] | > 1000 | > 1000 | > 20 | ++ | ++ |  | 
5 | COC(=O)N1Cc2cc(Cl)ccc2-n2c(nnc2C2CC3(C2)CN(c2ccccn2)C3)C1 [compound 70] | 100 to 500 | 500 to 1000 |  |  |  | 10 to 20 | 
6 | FC(F)CN1Cc2cc(Cl)ccc2-n2c(nnc2C2CC3(C2)CN(c2ccccn2)C3)C1 [compound 52] | 100 to 500 | 500 to 1000 |  |  |  | 10 to 20 | 
7 | CC(C)OC(=O)N1Cc2cc(Cl)ccc2-n2c(C3CC4(C3)CN(c3ncccn3)C4)nnc2C1C (stereo not shown) [compound 167] | > 1000 | > 1000 | > 20 | +++ | +++ |  | 
8 | O=C(C(F)F)N1Cc2cc(Cl)ccc2-n2c(nnc2C2CC3(C2)CN(c2ccccn2)C3)C1 [compound 122] | 100 to 500 | > 1000 |  |  |  | 7 to 10 | 
9 | CCOC(=O)N1Cc2cc(Cl)ccc2-n2c(C3CC4(C3)CN(c3ccc(F)cn3)C4)nnc2C1C (stereo not shown) [compound 169] | > 1000 | 100 to 500 |  |  |  | > 20 | 
10 | CC(=O)N1Cc2cc(Cl)ccc2-n2c(nnc2C2CC3(C2)CN(c2ccc(F)cn2)C3)C1 [compound 64] | 100 to 500 | > 1000 |  |  |  | < 7 | 
11 | COC(=O)N1Cc2cc(Cl)ccc2-n2c(C3CC4(C3)CN(c3ncc(F)cn3)C4)nnc2C1C (stereo not shown) [compound 170] | > 1000 | > 1000 | 10 to 20 | + | + |  | 
12 | Clc1ccc2c(c1)CN(C1CC1)Cc1nnc(C3CC4(C3)CN(c3ccccn3)C4)n1-2 [compound 56] | 100 to 500 | 500 to 1000 |  |  |  | > 20 | 
13 | CC(CF)OC(=O)N1Cc2cc(Cl)ccc2-n2c(nnc2C2CC3(C2)CN(c2ccc(F)cn2)C3)C1 (stereo not shown) [compound 78] | 100 to 500 | 100 to 500 |  |  |  | > 20 | 
14 | CCC(=O)N1Cc2cc(Cl)ccc2-n2c(nnc2C2CC3(C2)CN(c2ccc(F)cn2)C3)C1 [compound 72] | 100 to 500 | > 1000 |  |  |  | < 7 | 
15 | CCOC(=O)N1Cc2cc(Cl)ccc2-n2c(C3CC4(C3)CN(c3ncccn3)C4)nnc2C1C (stereo not shown) [compound 168] | > 1000 | > 1000 | 7 to 10 | + | + |  | 
16 | CC(C)C(=O)N1Cc2cc(Cl)ccc2-n2c(nnc2C2CC3(C2)CN(c2ccc(F)cn2)C3)C1 [compound 63] | 500 to 1000 | > 1000 |  |  |  | < 7 | 
17 | CC1c2nnc(C3CC4(C3)CN(c3ncccn3)C4)n2-c2ccc(Cl)cc2CN1C(=O)OC1CC1 (stereo not shown) [compound 171] | > 1000 | > 1000 | 10 to 20 | + | + |  | 
18 | FCCN1Cc2cc(Cl)ccc2-n2c(nnc2C2CC3(C2)CN(c2ccccn2)C3)C1 [compound 59] | 500 to 1000 | > 1000 |  |  |  | 7 to 10 | 
19 | CC1c2nnc(C3CC4(C3)CN(c3ncc(F)cn3)C4)n2-c2ccc(Cl)cc2CN1C(=O)OC(CF)CF (stereo not shown) [compound 194] | > 1000 | > 1000 | 10 to 20 | + | + |  | 

Row | Compound | IC50 [1] [nM] | IC50 [2] [nM] | Papp A→B at 1 h, 10 μM [3, 5] [×10⁻⁶ cm/s] | MDR1 EER [4] | MDR1 ER [4] | Papp A→B at 1 h, 10 μM [3, 6] [×10⁻⁶ cm/s] | Papp AB MDR1 ([4]; MDR1-MDCK cells, apical to basolateral (A>B), 10 μM, 1 hour)
20 | CC1c2nnc(C3CC4(C3)CN(c3cnccn3)C4)n2-c2ccc(Cl)cc2CN1C(=O)C1(F)CC1 (stereo not shown) [compound 177] | > 1000 | > 1000 | < 7 | + | + |  | 
21 | CC1c2nnc(C3CC4(C3)CN(c3ncc(F)cn3)C4)n2-c2ccc(Cl)cc2CN1C(=O)OC1(C)CC1 (stereo not shown) [compound 173] | > 1000 | 100 to 500 |  |  |  | > 20 | 
22 | O=C(N1Cc2cc(Cl)ccc2-n2c(nnc2C2CC3(C2)CN(c2cnccn2)C3)C1)C1(F)CC1 [compound 81] | > 1000 | > 1000 | 7 to 10 | + | + |  | 
23 | CC(C)OC(=O)N1Cc2cc(Cl)ccc2-n2c(nnc2C2CC3(C2)CN(C(=O)C2CC2)C3)C1 [compound 153] | > 1000 | > 1000 | < 7 | + | + |  | 
24 | COC(=O)N1Cc2cc(Cl)ccc2-n2c(C3CC4(C3)CN(c3ccc(F)cn3)C4)nnc2C1C (stereo not shown) [compound 142, methyl 8-chloro-1-(2-(5-fluoropyridin-2-yl)-2-azaspiro[3.3]heptan-6-yl)-4-methyl-4H-benzo[f][1,2,4]triazolo[4,3-a][1,4]diazepine-5(6H)-carboxylate] | > 1000 | 500 to 1000 | > 20 | + | ++ |  | 
25 | Clc1ccc2c(c1)CN(C1COC1)Cc1nnc(C3CC4(C3)CN(c3ccccn3)C4)n1-2 [compound 57, 8-chloro-5-(oxetan-3-yl)-1-(2-(pyridin-2-yl)-2-azaspiro[3.3]heptan-6-yl)-5,6-dihydro-4H-benzo[f][1,2,4]triazolo[4,3-a][1,4]diazepine] | > 1000 | > 1000 | < 7 | + | + |  | 
26 | CN1Cc2cc(Cl)ccc2-n2c(nnc2C2CC3(C2)CN(c2cccc(F)n2)C3)C1 [compound 8] | > 1000 | > 1000 | > 20 | +++ | +++ |  | 
27 | COC(=O)N1Cc2cc(Cl)ccc2-n2c(C3CC4(C3)CN(c3cnccn3)C4)nnc2C1C (stereo not shown) [compound 165] | > 1000 | 500 to 1000 |  |  |  | 7 to 10 | 
28 | CC(C)C(=O)N1Cc2cc(Cl)ccc2-n2c(nnc2C2CC3(C2)CN(c2ccccn2)C3)C1 [compound 71] | > 1000 | > 1000 | < 7 | + | + |  | 
29 | CC1c2nnc(C3CC4(C3)CN(c3ccc(F)cn3)C4)n2-c2ccc(Cl)cc2CN1C(=O)C1(F)CC1 (stereo not shown) [compound 174] | > 1000 | 500 to 1000 |  |  |  | > 20 | 
30 | CCC(=O)N1Cc2cc(Cl)ccc2-n2c(nnc2C2CC3(C2)CN(c2ccccn2)C3)C1 [compound 67] | > 1000 | > 1000 | < 7 | + | + |  | 
31 | O=C(OC1CC1)N1Cc2cc(Cl)ccc2-n2c(nnc2C2CC3(C2)CN(c2ccc(F)cn2)C3)C1 [compound 90] | > 1000 | 100 to 500 |  |  |  | > 20 | 
32 | COC(=O)N1Cc2cc(Cl)ccc2-n2c(C3CC4(C3)CN(c3ncccc3F)C4)nnc2C1C (stereo not shown) [compound 182] | 500 to 1000 | 500 to 1000 |  |  |  | > 20 | 
33 | CC1c2nnc(C3CC4(C3)CN(c3ncccn3)C4)n2-c2ccc(Cl)cc2CN1C(=O)OC1CC1 (single isomer, unassigned) [Cpd 171A] | > 1000 | > 1000 |  |  |  |  | + ((+) denotes an apparent permeability <7 (10^-6 cm/sec))
34 | O=C(OC(CF)CF)N1Cc2cc(Cl)ccc2-n2c(nnc2C2CC3(C2)CN(c2ccc(F)cn2)C3)C1 [compound 79] | 500 to 1000 | 100 to 500 |  |  |  | 10 to 20 | 
35 | COC(=O)N1Cc2cc(Cl)ccc2-n2c(nnc2C2CC3(C2)CN(c2ccc(F)cn2)C3)C1 [compound 61] | 100 to 500 | 500 to 1000 |  |  |  | 10 to 20 | 
36 | COC(=O)N1Cc2cc(Cl)ccc2-n2c(C3CC4(C3)CN(c3cccc(C)n3)C4)nnc2C1C (stereo not shown) [compound 180] | 100 to 500 | 100 to 500 |  |  |  | > 20 | 
37 | CCOC(=O)N1Cc2cc(Cl)ccc2-n2c(nnc2C2CC3(C2)CN(c2ccc(F)cn2)C3)C1 [compound 69] | 100 to 500 | 100 to 500 |  |  |  | > 20 | 
